Experimental data reported in patent US7803930B2, “Antisense modulation of apolipoprotein B-expression” (Isis Pharmaceuticals, Inc., priority 2002, dated 2010).
In the oligonucleotide strings, read from the 5' end, every base follows the letter of its sugar. An asterisk marks phosphorothioate; unmarked linkages are phosphodiester. Other units and linkages are bracketed, terminal groups are in braces. A string of capitals states the bases alone. e = 2'-O-(2-methoxyethyl) (MOE); [5mC] = 5-methylcytosine; d = 2'-deoxy (DNA)

Legend:
[1] = tested on: human apolipoprotein B mRNA; test: Apolipoprotein B mRNA in primary human hepatocytes, real-time PCR; type: cell-based; conditions: for apolipoprotein B mRNA expression: 5, 10, 50 or 150 nM
Procedure: In accordance with the present invention, antisense oligonucleotides targeted to human apolipoprotein B were tested in dose response studies in primary human hepatocytes. Pre-plated primary human hepatocytes were purchased from Invitro Technologies (Baltimore, Md.). Cells were cultured in high-glucose DMEM (Invitrogen Corporation, Carlsbad, Calif.) supplemented with 10% fetal bovine serum (Invitrogen Corporation, Carlsbad, Calif.), 100 units/mL and 100 μg/mL streptomycin (Invitrogen Corporation, Carlsbad, Calif.).
Human primary hepatocytes were treated with ISIS 301012 (SEQ ID NO: 247) at 10, 50, 150 or 300 nM. Untreated cells and cells treated with the scrambled control oligonucleotide ISIS 113529 ([…], SEQ ID NO: 859) served as two groups of control cells. ISIS 113529 is a chimeric oligonucleotide (“gapmer”) 20 nucleotides in length, composed of a central “gap” region consisting of ten 2′-deoxynucleotides, which is flanked on both sides (5′ and 3′ directions) by five-nucleotide “wings”. The wings are composed of 2′-methoxyethyl (2′-MOE)nucleotides. The internucleoside (backbone) linkages are phosphorothioate (P═S) throughout the oligonucleotide. All cytidines are 5-methylcytidines.
Oligonucleotides were introduced into cells through LIPOFECTIN-mediated transfection as described by other examples herein. Cells were harvested both 24 and 48 hours after treatment with oligonucleotide, and both RNA and protein were isolated. Additionally, the culture media from treated cells was collected for ELISA analysis of apolipoprotein B protein secretion.
Apolipoprotein B mRNA expression was determined by real-time PCR of RNA samples as described by other examples herein. Each result represents 6 experiments.
An additional experiment was performed to test the effects of ISIS 271009 (SEQ ID NO: 319), ISIS 281625 (SEQ ID NO: 224) and ISIS 301027 (SEQ ID NO: 262) on human apolipoprotein B mRNA in human primary hepatocytes. Cells were cultured as described herein and treated with 5, 10, 50 or 150 nM of ISIS 271009, ISIS 281625 or ISIS 301027 for a period of 24 hours. The control oligonucleotides ISIS 13650 (SEQ ID NO: 806) and ISIS 113529 (SEQ ID NO: 859) were used at 50 or 150 nM. Human apolipoprotein B mRNA expression was evaluated by real-time PCR as described by other examples herein. Apolipoprotein B protein secreted into the cultured cell media was measured in the samples treated with 50 and 150 nM of oligonucleotide, using a target protein specific ELISA kit (ALerCHEK Inc., Portland, Me.).

[2] = tested on: human apolipoprotein B mRNA; test: Inhibition of human apolipoprotein B mRNA levels in HepG2 cells, quantitative real-time PCR; type: cell-based; conditions: for % inhibition of apolipoprotein B mRNA levels / % inhibition 37 nM / % inhibition 75 nM / % inhibition 150 nM / % inhibition 300 nM: normalized to untreated control; for % inhibition of apolipoprotein B mRNA levels: average of two experiments; for % inhibition 37 nM / % inhibition 75 nM / % inhibition 150 nM / % inhibition 300 nM: Table 19 dose response; for % INHIB (inhibition of human apolipoprotein B mRNA levels): HepG2 cells treated with 150 nM of compound, quantitative real-time PCR
Method in brief: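 Apolipoprotein B transcript was quantified by one-step TaqMan RT-PCR, normalized to GAPDH or RiboGreen RNA, and expressed as percent inhibition against an untreated-sample standard curve. HepG2 cells were harvested 16-24 h after oligonucleotide exposure, which was delivered with 3.75 μg/mL Lipofectin over 4-7 h at 80% confluency.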

[3] = HepG2 cells, 12.5 nM oligonucleotide
[4] = HepG2 cells, 37 nM oligonucleotide
[5] = HepG2 cells, 75 nM oligonucleotide
[6] = HepG2 cells, 150 nM oligonucleotide
[7] = HepG2 cells, 300 nM oligonucleotide
[8] = 5 nM, 24 hours, "+" = expression increased

Substance | % inhibition of apolipoprotein B mRNA levels [2, 3] [%] | % inhibition of apolipoprotein B mRNA levels [2, 4] [%] | % inhibition of apolipoprotein B mRNA levels [2, 5] [%] | % inhibition of apolipoprotein B mRNA levels [2, 6] [%] | % inhibition of apolipoprotein B mRNA levels [2, 7] [%] | % inhibition 37 nM ([2]; HepG2 cells) [%] | % inhibition 75 nM ([2]; HepG2 cells) [%] | % inhibition 150 nM ([2]; HepG2 cells, 150 nM) [%] | % inhibition 300 nM ([2]; HepG2 cells) [%] | % INHIB (inhibition of human apolipoprotein B mRNA levels) ([2]; averages from two experiments) [%] | other results
113529 (antisense e[5mC]*eT*e[5mC]*eT*eT*dA*d[5mC]*dT*dG*dT*dG*d[5mC]*dT*dG*dT*eG*eG*eA*e[5mC]*eA) [compound 113529] | – | – | – | – | – | – | – | – | – | – | % Inhibition of apolipoprotein B mRNA ([1]; 150 nM, 24 hours): 16%; % Inhibition of apolipoprotein B mRNA ([1]; 150 nM, 48 hours): 5%; % Inhibition of apolipoprotein B mRNA ([1]; 300 nM, 24 hours): 10%; % Inhibition of apolipoprotein B mRNA ([1]; 300 nM, 48 hours): 18%
271009 (antisense eG*e[5mC]*e[5mC]*eT*e[5mC]*dA*dG*dT*d[5mC]*dT*dG*d[5mC]*dT*dT*d[5mC]*eG*e[5mC]*eG*e[5mC]*e[5mC]) [compound 271009] | 67 | 86 | 92 | 94 | 95 | 82 | 91 | 94 | 96 | – | % INHIB ([2]; Table 12, HepG2 cells, 150 nM, averages from two experiments): 75%
281625 (antisense eA*eG*eG*eT*eT*dA*d[5mC]*d[5mC]*dA*dG*d[5mC]*d[5mC]*dA*d[5mC]*dA*eT*eG*e[5mC]*eA*eG) [compound 281625] | 44 | 66 | 83 | 85 | 94 | 62 | 76 | 84 | 94 | 94 | –
301012 (eG*e[5mC]*e[5mC]*eT*e[5mC]*dA*dG*dT*d[5mC]*dT*dG*d[5mC]*dT*dT*d[5mC]*eG*e[5mC]*eA*e[5mC]*e[5mC]) [compound 301012] | 63 | 79 | 90 | 92 | 95 | – | – | – | – | 87 | % Change in apolipoprotein B mRNA expression ([2]; HepG2 cells, 10 nM, 24 hour (Table 41)): −51%; % Change in apolipoprotein B mRNA expression ([2]; HepG2 cells, 50 nM, 24 hour (Table 40)): −44%; % Change in apolipoprotein B mRNA expression ([2]; HepG2 cells, 50 nM, 24 hour (Table 41)): −72%; % Change in apolipoprotein B mRNA expression ([2]; HepG2 cells, 150 nM, 24 hour (Table 40)): −75%; % Change in apolipoprotein B mRNA expression ([2]; HepG2 cells, 150 nM, 24 hour (Table 41)): −92%; % Inhibition of apolipoprotein B mRNA ([1]; 10 nM, 24 hours): 65%; % Inhibition of apolipoprotein B mRNA ([1]; 10 nM, 48 hours): 33%; % Inhibition of apolipoprotein B mRNA ([1]; 50 nM, 24 hours): 75%; % Inhibition of apolipoprotein B mRNA ([1]; 50 nM, 48 hours): 48%; % Inhibition of apolipoprotein B mRNA ([1]; 150 nM, 24 hours): 90%; % Inhibition of apolipoprotein B mRNA ([1]; 150 nM, 48 hours): 78%; % Inhibition of apolipoprotein B mRNA ([1]; 300 nM, 24 hours): 89%; % Inhibition of apolipoprotein B mRNA ([1]; 300 nM, 48 hours): 72%
301027 (eG*e[5mC]*eT*e[5mC]*eA*d[5mC]*dT*dG*dT*dA*dT*dG*dG*dT*dT*eT*eT*eA*eT*e[5mC]; antisense) [compound 301027] | – | – | – | – | – | 80 | 90 | 95 | 96 | 89 | –
ISIS 281625: SEQ ID NO: 224, 2′-MOE gapmer targeted to human apolipoprotein B (antisense eA*eG*eG*eT*eT*dA*d[5mC]*d[5mC]*dA*dG*d[5mC]*d[5mC]*dA*d[5mC]*dA*eT*eG*e[5mC]*eA*eG) | – | – | – | – | – | – | – | – | – | – | % Inhibition of apolipoprotein B mRNA expression [1, 8]: 8%; % Inhibition of apolipoprotein B mRNA expression ([1]; 10 nM, 24 hours (Table 37)): 22%; % Inhibition of apolipoprotein B mRNA expression ([1]; 50 nM, 24 hours (Table 37)): 49%; % Inhibition of apolipoprotein B mRNA expression ([1]; 150 nM, 24 hours (Table 37)): 52%; apolipoprotein B mRNA expression ([1]; 24 hours): inhibit apolipoprotein B mRNA expression in a dose-dependent manner
ISIS 301012: SEQ ID NO: 247, antisense oligonucleotide targeted to human apolipoprotein B (antisense GCCTCAGTCTGCTTCGCACC; chemistry not given here) | – | – | – | – | – | – | – | – | – | – | apolipoprotein B expression (mRNA) ([1]; 10, 50, 150 or 300 nM, 24 and 48 hours): inhibits apolipoprotein B expression in a dose-dependent manner
ISIS 301027: SEQ ID NO: 262, 2′-MOE gapmer targeted to human apolipoprotein B (antisense eG*e[5mC]*eT*e[5mC]*eA*d[5mC]*dT*dG*dT*dA*dT*dG*dG*dT*dT*eT*eT*eA*eT*e[5mC]) | – | – | – | – | – | – | – | – | – | – | % Inhibition of apolipoprotein B mRNA expression [1, 8]: 11%; % Inhibition of apolipoprotein B mRNA expression ([1]; 10 nM, 24 hours (Table 37)): 37%; % Inhibition of apolipoprotein B mRNA expression ([1]; 50 nM, 24 hours (Table 37)): 50%; % Inhibition of apolipoprotein B mRNA expression ([1]; 150 nM, 24 hours (Table 37)): 70%; apolipoprotein B mRNA expression ([1]; 24 hours): inhibit apolipoprotein B mRNA expression in a dose-dependent manner
